Results reported in ChEMBL document CHEMBL1158064, “Depsidones from the endophytic fungus BCC 8616” (J Nat Prod, 2006).
≈ marks a conversion by molar mass, not a printed value.

Tests used:
KB = test: Cytotoxicity against human KB cells by colorimetric method; format: functional, cell-based
[1] = Cytotoxicity against human BC cells by colorimetric method; format: functional, cell-based

C/C=C(\C)c1cc(O)c(C)c2c1Oc1c(C=O)c(O)cc(/C(C)=C/C)c1C(=O)O2
IC50 (KB): 6.5 µg/mL (≈ 16.5 µM) | IC50 [1]: 4.1 µg/mL (≈ 10.4 µM)

COc1cccc2c1C(=O)c1c(O)c3c(c(O)c1C2=O)C[C@@](O)(C(=O)CO)C[C@@H]3O[C@H]1C[C@H](N)[C@H](O)[C@H](C)O1 [DOXORUBICIN]
IC50 [1]: 0.17 µg/mL (≈ 0.313 µM)

C/C=C(\C)c1cc(OC)c(C)c2c1Oc1c(CO)c(O)cc(/C(C)=C/C(=O)O)c1C(=O)O2 [AURANTICIN A]
IC50 (KB): > 5 µg/mL | IC50 [1]: > 5 µg/mL

Cc1c2ccncc2c(C)c2c1[nH]c1ccccc12 [ELLIPTECINE]
IC50 (KB): 0.21 µg/mL (≈ 0.853 µM) | IC50 [1]: 0.14 µg/mL (≈ 0.568 µM)

C/C=C(\C)c1cc(O)c(C)c2c1Oc1c(CO)c(O)cc(/C(C)=C/C)c1C(=O)O2
IC50 (KB): > 5 µg/mL | IC50 [1]: > 5 µg/mL

C/C=C(\C)c1cc(O)c(C)c2c1Oc1c(COC)c(O)cc(/C(C)=C/C)c1C(=O)O2
IC50 (KB): > 5 µg/mL | IC50 [1]: > 5 µg/mL
